Data reported in ChEMBL document CHEMBL3046153, “Synthesis and antimicrobial evaluation of 4,5-diaryl-2-[4-(t-amino)-2-butynyl]-2,4-dihydro-3H-1,2,4-triazol-3-ones” (2012).
≈ marks a conversion by molar mass, not a printed value.

Experiments:
Format in all cases: functional
Candida albicans = test: Antifungal activity against Candida albicans clinical isolate after 24 hr by NCCLS broth macrodilution method
Pseudomonas aeruginosa = test: Antibacterial activity against Pseudomonas aeruginosa ATCC 27953 after 16 to 18 hr by NCCLS broth macrodilution method
Escherichia coli = test: Antibacterial activity against Escherichia coli ATCC 25922 after 16 to 18 hr by NCCLS broth macrodilution method
Staphylococcus aureus = test: Antibacterial activity against Staphylococcus aureus ATCC 29213 after 16 to 18 hr by NCCLS broth macrodilution method

Question: Which results are given for CC1CCCC(C)N1CC#CCn1nc(-c2ccccc2)n(-c2ccccc2)c1=O (stereo unspecified)?
Answer: MIC (Candida albicans): 25 µg/mL (≈ 62.4 µM); MIC (Pseudomonas aeruginosa): 50 µg/mL (≈ 125 µM); MIC (Escherichia coli): 12.5 µg/mL (≈ 31.2 µM); MIC (Staphylococcus aureus): 12.5 µg/mL (≈ 31.2 µM)

Question: Which MIC (Candida albicans) does the source give for CC(=O)N1CCN(c2ccc(OCC3COC(Cn4ccnc4)(c4ccc(Cl)cc4Cl)O3)cc2)CC1 (stereo unspecified) [KETOCONAZOLE] here?
Answer: Its MIC is 12.5 µg/mL (≈ 23.5 µM).

Question: What does the source list for CC1CCCCN1CC#CCn1nc(-c2ccc(Cl)cc2)n(-c2ccccc2)c1=O (stereo unspecified)?
Answer: MIC (Candida albicans): 50 µg/mL (≈ 119 µM); MIC (Pseudomonas aeruginosa): 100 µg/mL (≈ 238 µM); MIC (Escherichia coli): 50 µg/mL (≈ 119 µM); MIC (Staphylococcus aureus): 12.5 µg/mL (≈ 29.7 µM)

Question: Which MIC (Candida albicans) does the source give for O=c1n(CC#CCN2CCCCCC2)nc(-c2ccccc2)n1-c1cccc2ccccc12 here?
Answer: The MIC was 25 µg/mL (≈ 57.3 µM).

Question: And the MIC (Pseudomonas aeruginosa)?
Answer: The MIC was 50 µg/mL (≈ 115 µM).

Question: What about the MIC (Escherichia coli) of the same molecule?
Answer: Its MIC is 50 µg/mL (≈ 115 µM).

Question: And the MIC (Staphylococcus aureus)?
Answer: The MIC was 25 µg/mL (≈ 57.3 µM).

Question: With O=c1n(CC#CCN2CCCCCC2)nc(-c2ccccc2)n1-c1ccccc1 as the molecule, how does the MIC (Candida albicans) read?
Answer: The MIC was 12.5 µg/mL (≈ 32.3 µM).

Question: And the MIC (Pseudomonas aeruginosa)?
Answer: Its MIC is 50 µg/mL (≈ 129 µM).

Question: And the MIC (Escherichia coli)?
Answer: The MIC was 12.5 µg/mL (≈ 32.3 µM).

Question: And the MIC (Staphylococcus aureus)?
Answer: Its MIC is 6.25 µg/mL (≈ 16.2 µM).

Question: Which MIC (Candida albicans) does the source give for O=c1n(CC#CCN2CCCCCCC2)nc(-c2ccccc2)n1-c1cccc2ccccc12 here?
Answer: Its MIC is 12 µg/mL (≈ 26.6 µM).

Question: What about the MIC (Pseudomonas aeruginosa) of the same molecule?
Answer: The MIC was 50 µg/mL (≈ 111 µM).

Question: And the MIC (Escherichia coli)?
Answer: The MIC was 25 µg/mL (≈ 55.5 µM).

Question: What about the MIC (Staphylococcus aureus) of the same molecule?
Answer: Its MIC is 50 µg/mL (≈ 111 µM).

Question: With CC1COc2c(N3CCN(C)CC3)c(F)cc3c(=O)c(C(=O)O)cn1c23 (stereo unspecified) [OFLOXACIN] as the molecule, how does the MIC (Pseudomonas aeruginosa) read?
Answer: Its MIC is 25 µg/mL (≈ 69.2 µM).

Question: And the MIC (Escherichia coli)?
Answer: The MIC was 12.5 µg/mL (≈ 34.6 µM).

Question: And the MIC (Staphylococcus aureus)?
Answer: Its MIC is 12.5 µg/mL (≈ 34.6 µM).

Question: Which MIC (Candida albicans) does the source give for O=c1n(CC#CCN2CCCCC2)nc(-c2ccc(Cl)cc2)n1-c1ccccc1 here?
Answer: Its MIC is 25 µg/mL (≈ 61.4 µM).

Question: What about the MIC (Pseudomonas aeruginosa) of the same molecule?
Answer: Its MIC is 100 µg/mL (≈ 246 µM).

Question: And the MIC (Escherichia coli)?
Answer: Its MIC is 50 µg/mL (≈ 123 µM).

Question: What about the MIC (Staphylococcus aureus) of the same molecule?
Answer: Its MIC is 12.5 µg/mL (≈ 30.7 µM).

Question: For CC1CCCN(CC#CCn2nc(-c3ccccc3)n(-c3cccc4ccccc34)c2=O)C1 (stereo unspecified), which MIC (Candida albicans) is on record?
Answer: Its MIC is 50 µg/mL (≈ 115 µM).

Question: What about the MIC (Pseudomonas aeruginosa) of the same molecule?
Answer: Its MIC is 100 µg/mL (≈ 229 µM).

Question: What about the MIC (Escherichia coli) of the same molecule?
Answer: Its MIC is 50 µg/mL (≈ 115 µM).

Question: And the MIC (Staphylococcus aureus)?
Answer: The MIC was 25 µg/mL (≈ 57.3 µM).

Question: What does the source list for CC1CCCN(CC#CCn2nc(-c3ccccc3)n(-c3ccccc3)c2=O)C1 (stereo unspecified)?
Answer: MIC (Candida albicans): 12.5 µg/mL (≈ 32.3 µM); MIC (Pseudomonas aeruginosa): 50 µg/mL (≈ 129 µM); MIC (Escherichia coli): 12.5 µg/mL (≈ 32.3 µM); MIC (Staphylococcus aureus): 12.5 µg/mL (≈ 32.3 µM)

Question: For CC1CCCC(C)N1CC#CCn1nc(-c2ccccc2)n(-c2cccc3ccccc23)c1=O (stereo unspecified), which MIC (Candida albicans) is on record?
Answer: The MIC was 50 µg/mL (≈ 111 µM).

Question: What about the MIC (Pseudomonas aeruginosa) of the same molecule?
Answer: Its MIC is 100 µg/mL (≈ 222 µM).

Question: And the MIC (Escherichia coli)?
Answer: Its MIC is 50 µg/mL (≈ 111 µM).

Question: And the MIC (Staphylococcus aureus)?
Answer: The MIC was 50 µg/mL (≈ 111 µM).

Question: Which MIC (Candida albicans) does the source give for CC1CCCC(C)N1CC#CCn1nc(-c2ccc(Cl)cc2)n(-c2ccccc2)c1=O (stereo unspecified) here?
Answer: The MIC was 25 µg/mL (≈ 57.5 µM).

Question: And the MIC (Pseudomonas aeruginosa)?
Answer: Its MIC is 50 µg/mL (≈ 115 µM).

Question: And the MIC (Escherichia coli)?
Answer: The MIC was 25 µg/mL (≈ 57.5 µM).

Question: What about the MIC (Staphylococcus aureus) of the same molecule?
Answer: The MIC was 25 µg/mL (≈ 57.5 µM).

Question: What does the source list for O=c1n(CC#CCN2CCCC2)nc(-c2ccccc2)n1-c1ccccc1?
Answer: MIC (Candida albicans): 25 µg/mL (≈ 69.7 µM); MIC (Pseudomonas aeruginosa): 100 µg/mL (≈ 279 µM); MIC (Escherichia coli): 50 µg/mL (≈ 139 µM); MIC (Staphylococcus aureus): 25 µg/mL (≈ 69.7 µM)

Question: Which results are given for CC1CCCCN1CC#CCn1nc(-c2ccccc2)n(-c2ccccc2)c1=O (stereo unspecified)?
Answer: MIC (Candida albicans): 25 µg/mL (≈ 64.7 µM); MIC (Pseudomonas aeruginosa): 100 µg/mL (≈ 259 µM); MIC (Escherichia coli): 50 µg/mL (≈ 129 µM); MIC (Staphylococcus aureus): 12.5 µg/mL (≈ 32.3 µM)

Question: For O=c1n(CC#CCN2CCCCCCC2)nc(-c2ccccc2)n1-c1ccccc1, which MIC (Candida albicans) is on record?
Answer: Its MIC is 12.5 µg/mL (≈ 31.2 µM).

Question: And the MIC (Pseudomonas aeruginosa)?
Answer: The MIC was 25 µg/mL (≈ 62.4 µM).

Question: And the MIC (Escherichia coli)?
Answer: The MIC was 6.25 µg/mL (≈ 15.6 µM).

Question: And the MIC (Staphylococcus aureus)?
Answer: Its MIC is 6.25 µg/mL (≈ 15.6 µM).
